Each block holds one molecule with its values, some of them ahead of it. Calls of active or inactive are those of the source. No cut-off for these calls is given here.
Legend:
Cytochrome P450 2C19 = Cytochrome P450 2C19 (Homo sapiens, UniProt P33261); test: Inhibition of CYP2C19 in human liver microsomes at 90 uM; assay type: ADME, Microsome
Cytochrome P450 2C9 = Cytochrome P450 2C9 (Homo sapiens, UniProt P11712); test: Inhibition of CYP2C9 in human liver microsomes at 90 uM; assay type: ADME, Microsome
Plasma [1] = test: Anticoagulant activity in human plasma assessed as activated partial thromboplastin time; assay type: functional, cell-free
[2] = Cmax in monkey 1 mg/kg, po; assay type: ADME, organism-based, Macaca mulatta; parameters: dose 1 mg/kg, route oral; details: rhesus monkey, in vivo
[3] = Oral bioavailability in rat 10 mg/kg; assay type: ADME, organism-based; details: in vivo
Platelet [4] = test: Ex vivo inhibition of haTRAP-induced platelet aggregation in cynomolgus monkey at 0.1 mg/kg after >24 hrs by impedance aggregometry; assay type: functional; details: Macaca fascicularis
Cytochrome P450 3A4 = Cytochrome P450 3A4 (Homo sapiens, UniProt P08684); test: Inhibition of CYP3A4 in human liver microsomes at 90 uM; assay type: ADME, Microsome
Plasma [5] = test: Anticoagulant activity in human plasma assessed as prothrombin time; assay type: functional, cell-free
[6] = Oral bioavailability in monkey 1 mg/kg; assay type: ADME, organism-based, Macaca mulatta; details: rhesus monkey, in vivo
[7] = biological target: T1, Proteinase-activated receptor 3 (Homo sapiens) (UniProt O00254); test: Binding affinity to PAR3
T1 sequence (whole entry): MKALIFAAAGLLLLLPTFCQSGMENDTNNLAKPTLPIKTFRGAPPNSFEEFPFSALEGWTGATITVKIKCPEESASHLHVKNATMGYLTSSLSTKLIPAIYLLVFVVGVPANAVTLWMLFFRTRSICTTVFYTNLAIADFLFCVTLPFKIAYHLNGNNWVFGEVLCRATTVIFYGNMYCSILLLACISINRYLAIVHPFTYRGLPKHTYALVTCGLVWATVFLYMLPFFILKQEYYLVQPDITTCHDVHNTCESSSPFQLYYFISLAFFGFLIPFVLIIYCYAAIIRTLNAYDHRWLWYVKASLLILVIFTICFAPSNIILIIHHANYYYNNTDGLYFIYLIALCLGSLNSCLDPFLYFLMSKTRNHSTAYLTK

[8] = AUC (0 to 24 hrs) in monkey 1 mg/kg, po; assay type: ADME, organism-based, Macaca mulatta; parameters: time < 24 hr, dose 1 mg/kg, route oral; details: rhesus monkey, plasma
[9] = Tmax in rat 10 mg/kg, po; assay type: ADME, organism-based; parameters: dose 10 mg/kg, route oral; details: in vivo
[10] = biological target: T2, Proteinase-activated receptor 1 (Homo sapiens, UniProt P25116); test: Antagonist activity at human PAR1 in HCASMC assessed as inhibition of thrombin-induced calcium efflux; assay type: functional
T2 sequence (P25116 whole entry): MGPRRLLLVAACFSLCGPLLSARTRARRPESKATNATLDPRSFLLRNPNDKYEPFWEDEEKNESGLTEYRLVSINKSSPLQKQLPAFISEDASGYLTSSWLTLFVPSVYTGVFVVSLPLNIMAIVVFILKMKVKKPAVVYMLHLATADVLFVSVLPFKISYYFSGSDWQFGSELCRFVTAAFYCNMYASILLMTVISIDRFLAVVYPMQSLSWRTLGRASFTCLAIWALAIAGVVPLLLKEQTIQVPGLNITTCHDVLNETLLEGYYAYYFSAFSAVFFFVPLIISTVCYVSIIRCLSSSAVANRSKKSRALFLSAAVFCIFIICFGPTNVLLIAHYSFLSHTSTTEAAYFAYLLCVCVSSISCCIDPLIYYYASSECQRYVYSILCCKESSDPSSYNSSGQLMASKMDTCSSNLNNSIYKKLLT

[11] = biological target: T3, Proteinase-activated receptor 4 (Homo sapiens) (UniProt Q96RI0); test: Activity at PAR4
T3 sequence (whole entry): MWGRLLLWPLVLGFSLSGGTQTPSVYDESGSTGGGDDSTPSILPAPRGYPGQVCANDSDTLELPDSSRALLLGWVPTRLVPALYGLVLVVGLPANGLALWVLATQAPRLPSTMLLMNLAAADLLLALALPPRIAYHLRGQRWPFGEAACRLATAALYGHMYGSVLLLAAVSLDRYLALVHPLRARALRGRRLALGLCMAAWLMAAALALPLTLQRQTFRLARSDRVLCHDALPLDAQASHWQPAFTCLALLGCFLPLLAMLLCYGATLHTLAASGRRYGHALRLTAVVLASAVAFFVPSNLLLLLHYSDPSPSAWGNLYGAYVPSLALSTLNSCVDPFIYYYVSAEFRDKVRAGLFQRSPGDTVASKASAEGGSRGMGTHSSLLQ

Cytochrome P450 1A2 = biological target: T4, Cytochrome P450 1A2 (Homo sapiens, UniProt P05177); test: Inhibition of CYP1A2 in human liver microsomes at 90 uM; assay type: ADME, Microsome
T4 sequence (P05177 whole entry): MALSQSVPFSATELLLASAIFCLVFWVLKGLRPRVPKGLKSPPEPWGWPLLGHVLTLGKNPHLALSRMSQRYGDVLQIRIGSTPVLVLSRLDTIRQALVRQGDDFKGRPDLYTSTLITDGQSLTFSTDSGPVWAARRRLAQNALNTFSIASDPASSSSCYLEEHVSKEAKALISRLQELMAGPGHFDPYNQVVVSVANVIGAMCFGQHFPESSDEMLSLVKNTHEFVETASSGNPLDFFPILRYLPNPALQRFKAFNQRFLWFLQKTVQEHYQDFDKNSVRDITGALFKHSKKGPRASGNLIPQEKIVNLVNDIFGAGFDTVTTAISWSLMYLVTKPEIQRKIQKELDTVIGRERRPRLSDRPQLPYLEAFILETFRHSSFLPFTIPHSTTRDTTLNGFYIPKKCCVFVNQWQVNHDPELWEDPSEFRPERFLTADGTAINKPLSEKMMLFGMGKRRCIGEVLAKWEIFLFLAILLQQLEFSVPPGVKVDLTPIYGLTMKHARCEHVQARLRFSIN

[12] = AUC (0 to 24 hrs) in cynomolgus monkey at 0.1 mg/kg, po after >24 hrs; assay type: ADME, organism-based, Macaca fascicularis; parameters: time < 24 hr, dose 0.1 mg/kg, route oral; details: plasma
[13] = Half life in rat 10 mg/kg, iv; assay type: ADME, organism-based; parameters: dose 10 mg/kg, route intravenous; details: in vivo
[14] = Tmax in monkey 1 mg/kg, po; assay type: ADME, organism-based, Macaca mulatta; parameters: dose 1 mg/kg, route oral; details: rhesus monkey, in vivo
Platelet [15] = test: Ex vivo inhibition of haTRAP-induced platelet aggregation in cynomolgus monkey at 0.5 mg/kg, po after 24 hrs by impedance aggregometry; assay type: functional; details: Macaca fascicularis
[16] = Oral absorption in monkey 1 mg/kg, po; details: rhesus monkey, in vivo, read-out: Fabs
[17] = Oral absorption in rat 10 mg/kg, po; assay type: ADME, organism-based; parameters: dose 10 mg/kg, route oral; details: in vivo, read-out: Fabs
[18] = AUC (0 to 24 hrs) in rat 10 mg/kg, po; assay type: ADME, organism-based; parameters: time < 24 hr, dose 10 mg/kg, route oral; details: plasma
Platelet [19] = test: Ex vivo inhibition of haTRAP-induced platelet aggregation in cynomolgus monkey at 0.3 mg/kg, po after 24 hrs by impedance aggregometry; assay type: functional; details: Macaca fascicularis
[20] = Cmax in cynomolgus monkey at 0.1 mg/kg, po after >24 hrs; assay type: ADME, organism-based, Macaca fascicularis; parameters: dose 0.1 mg/kg, route oral; details: in vivo
[21] = Half life in monkey 1 mg/kg, iv; assay type: ADME, organism-based, Macaca mulatta; parameters: dose 1 mg/kg, route intravenous; details: rhesus monkey, in vivo
[22] = biological target: Proteinase-activated receptor 2 (Homo sapiens) (UniProt P55085); test: Binding affinity to PAR2
[23] = biological target: T2, Proteinase-activated receptor 1; test: Displacement of [3H]haTRAP from PAR1 in human platelets
[24] = Cmax in rat 10 mg/kg, po; assay type: ADME, organism-based; parameters: dose 10 mg/kg, route oral; details: in vivo
[25] = Inhibition of […] in human liver microsomes at 90 uM; assay type: ADME, Microsome
[26] = AUC (0 to 24 hrs) in cynomolgus monkey at 1 mg/kg, po after >24 hrs; assay type: ADME, organism-based, Macaca fascicularis; parameters: time < 24 hr, dose 1 mg/kg, route oral; details: plasma
[27] = Cmax in cynomolgus monkey at 1 mg/kg, po after >24 hrs; assay type: ADME, organism-based, Macaca fascicularis; parameters: dose 1 mg/kg, route oral; details: in vivo
Platelet [28] = test: Ex vivo inhibition of haTRAP-induced platelet aggregation in cynomolgus monkey at 1 mg/kg after >24 hrs by impedance aggregometry; assay type: functional; details: Macaca fascicularis

Sequence of Proteinase-activated receptor 2 (Homo sapiens) (P55085 whole entry): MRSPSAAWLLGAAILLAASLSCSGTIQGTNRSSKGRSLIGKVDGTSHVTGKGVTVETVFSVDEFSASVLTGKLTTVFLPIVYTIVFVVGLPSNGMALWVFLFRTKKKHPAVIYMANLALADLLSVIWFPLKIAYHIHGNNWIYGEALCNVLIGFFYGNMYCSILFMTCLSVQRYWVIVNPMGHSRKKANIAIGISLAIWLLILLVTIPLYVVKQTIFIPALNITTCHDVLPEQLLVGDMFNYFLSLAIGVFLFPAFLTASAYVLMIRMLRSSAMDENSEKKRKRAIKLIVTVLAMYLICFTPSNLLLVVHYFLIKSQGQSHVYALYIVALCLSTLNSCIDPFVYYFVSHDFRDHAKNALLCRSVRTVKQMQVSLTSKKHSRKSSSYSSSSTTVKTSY
Sequence of Cytochrome P450 3A4 (P08684 whole entry): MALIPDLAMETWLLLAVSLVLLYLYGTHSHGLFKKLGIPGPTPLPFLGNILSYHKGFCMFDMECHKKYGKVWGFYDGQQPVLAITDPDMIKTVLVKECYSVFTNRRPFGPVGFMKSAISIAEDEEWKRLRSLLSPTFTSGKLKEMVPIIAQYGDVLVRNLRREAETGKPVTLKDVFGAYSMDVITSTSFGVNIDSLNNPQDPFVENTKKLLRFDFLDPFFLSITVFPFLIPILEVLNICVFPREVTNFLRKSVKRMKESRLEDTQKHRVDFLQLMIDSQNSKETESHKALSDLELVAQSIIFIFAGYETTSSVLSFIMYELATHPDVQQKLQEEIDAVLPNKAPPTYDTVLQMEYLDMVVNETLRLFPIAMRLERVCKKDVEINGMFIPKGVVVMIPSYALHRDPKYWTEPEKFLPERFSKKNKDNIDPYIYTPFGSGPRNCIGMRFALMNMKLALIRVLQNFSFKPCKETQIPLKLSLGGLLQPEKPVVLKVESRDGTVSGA
Sequence of Cytochrome P450 2C19 (P33261 whole entry): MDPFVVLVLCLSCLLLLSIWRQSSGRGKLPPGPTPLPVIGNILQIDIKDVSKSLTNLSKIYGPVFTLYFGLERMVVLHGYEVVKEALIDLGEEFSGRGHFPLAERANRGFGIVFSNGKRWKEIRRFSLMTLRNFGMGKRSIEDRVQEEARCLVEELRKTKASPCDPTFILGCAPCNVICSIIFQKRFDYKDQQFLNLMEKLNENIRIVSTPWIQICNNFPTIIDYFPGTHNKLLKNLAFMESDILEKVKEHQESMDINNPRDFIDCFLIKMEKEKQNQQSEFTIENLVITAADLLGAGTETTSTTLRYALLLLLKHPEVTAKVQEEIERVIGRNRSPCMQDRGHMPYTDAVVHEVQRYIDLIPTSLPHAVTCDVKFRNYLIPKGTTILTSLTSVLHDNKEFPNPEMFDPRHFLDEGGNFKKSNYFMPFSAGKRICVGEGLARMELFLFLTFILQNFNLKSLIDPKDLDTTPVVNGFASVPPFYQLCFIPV
Sequence of Cytochrome P450 2C9 (P11712 whole entry): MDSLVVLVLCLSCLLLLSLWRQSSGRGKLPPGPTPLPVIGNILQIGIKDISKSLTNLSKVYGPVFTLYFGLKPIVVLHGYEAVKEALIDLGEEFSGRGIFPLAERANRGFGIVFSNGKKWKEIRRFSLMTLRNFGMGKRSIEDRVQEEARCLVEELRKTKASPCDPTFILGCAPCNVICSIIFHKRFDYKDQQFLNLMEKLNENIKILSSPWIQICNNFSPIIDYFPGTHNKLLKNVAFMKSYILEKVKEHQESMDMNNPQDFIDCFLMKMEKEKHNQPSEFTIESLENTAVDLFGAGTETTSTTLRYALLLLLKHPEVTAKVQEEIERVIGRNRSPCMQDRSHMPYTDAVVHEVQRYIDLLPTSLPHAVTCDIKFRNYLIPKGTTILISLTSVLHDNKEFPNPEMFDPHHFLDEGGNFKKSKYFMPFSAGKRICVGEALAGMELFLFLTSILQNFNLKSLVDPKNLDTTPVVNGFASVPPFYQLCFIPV

Activity (Cytochrome P450 2C19): Not Active | Activity (Cytochrome P450 2C9): Not Active | Cmax [2]: 1300 nM | bioavailability [3]: 33% | Activity (Cytochrome P450 3A4): Not Active | bioavailability [6]: 86% | Activity [7]: inactive | AUC(0-t) at 24 h [8]: 10 µM·h | Tmax [9]: 3 h | Ki [10]: 1.1 nM | Activity [11]: inactive | Activity (Cytochrome P450 1A2): Not Active | AUC(0-t) at 24 h [12]: 0.2 µM·h | half-life [13]: 5.1 h | Tmax [14]: 1 h | Fa [16]: 82% | Fa [17]: 68% | AUC(0-t) at 24 h [18]: 5.3 µM·h | Cmax [20]: 18 nM | half-life [21]: 13 h | Activity [22]: inactive | Ki [23]: 8.1 nM | Cmax [24]: 670 nM | Activity [25]: Not Active
Structure (SMILES): CCOC(=O)N[C@@H]1CC[C@@H]2[C@@H](C1)C[C@H]1C(=O)O[C@H](C)[C@H]1[C@H]2/C=C/c1ccc(-c2cccc(F)c2)cn1 [VORAPAXAR]
Activity (Plasma [1]): inactive | inhibition in vivo at 0.1 mg/kg (Platelet [4]): 100% | Activity (Plasma [5]): inactive | inhibition in vivo at 0.5 mg/kg (Platelet [15]): 100% | inhibition in vivo at 0.3 mg/kg (Platelet [19]): 100%

AUC(0-t) at 24 h [26]: 5.03 µM·h | Cmax [27]: 330 nM | Ki [23]: 13 nM
Structure (SMILES): CCOC(=O)N[C@@H]1CC[C@@H]2[C@@H](C1)C[C@H]1C(=O)O[C@H](C)[C@H]1[C@H]2/C=C/c1ccc(-c2cccc(C(F)(F)F)c2)cn1
inhibition in vivo at 1 mg/kg (Platelet [28]): 100%

Source: ChEMBL document CHEMBL1150318, “Discovery of a novel, orally active himbacine-based thrombin receptor antagonist (SCH 530348) with potent antiplatelet activity” (J Med Chem, 2008)
